How the values were obtained:
ICR mice = experiment: Mice acetic acid writhing pain model (visceral and inflammatory pain); format: in vivo; details: 1 h before acetic acid, saline group 49 times
Protocol: Male ICR mice, 22-25 g, were fasted but allowed to drink water freely for 2 h before administration. All ICR mice were weighed and grouped randomly, each group had >10 animals. […] The drug was administrated by gavage based on the weight of mice. 1.5% acetic acid solution (0.1 ml/10 g) was injected intraperitoneally 1 h after administration, and the number of times of visceral pain in each group was observed within 30 min. When concave abdomen, stretched trunk and hind claw, and high buttocks appeared, one number point was recorded. Finally, the number of appearance of the above phenomenon was counted within 30 minutes.

SH-SY5Y cells = experiment: Cytotoxicity test (CCK-8), neurotoxicity; format: cell-based; details: 72 h
Protocol: (§1) In this example, hepatotoxicity and neurotoxicity of compound I-1 and S-duloxetine were detected.
(§2) HepG-2 and SH-SY5Y cells were placed in 10 cm dish and cultured at 37° C., 5% CO2 in a cell incubator. Trypsin was used to digest and resuspend cells and cells were counted. The cells were transferred to 96-well plate with 8000 cells in a well (100 μl/well), cultured at 37° C., 5% CO2 in a cell incubator for 24 hrs. A serial of gradient concentration dilutions of compound I-1 (prepared in example 2 of the present invention) with 2-fold dilution were prepared, and the system was 100 μL/well. The supernatant of cell culture system in the 96-well plate was removed on the first day, and fresh-prepared drug concentration system was add into culture plate wells (duplicate wells were set). The cells were cultured at 37° C., 5% CO2 in a cell incubator for 72 h. […] Microplate reader was used to measure the absorbance at 450 nm. Data was processed to calculate cytotoxicity, and IC50 was calculated by GraphPad Prism. […]
(§3) A (Dosing): the absorbance of wells containing cells, CCK-8 solution and drug solution.
(§4) A (control): the absorbance of wells containing medium and CCK-8 solution and without cells.
(§5) A (0 Dosing): the absorbance of wells containing cells and CCK-8 solution but without drug solution […]

C57BL/6 mice = experiment: Mice formalin pain model (acute and inflammatory pain); format: in vivo; details: for Licking claw time (s) in phase II (10-60 min): hydrochloride salt, blank vehicle 349.55 ± 43.09
Source text: 150 C57BL/6 mice (male, 9-week aged) were randomly divided into 15 groups, (each group had 10 mice) for the analgesic activity test of 3 compounds in the mice formalin pain model respectively: the compound I-1 group (compound I-1 prepared in Example 2 whose hydrochloride salt was used in the experiment), the S-duloxetine group (its hydrochloride salt was used in the experiment) and the compound C1 group (the compound C1 prepared in Comparative Example 1, whose hydrochloride salt was used in the experiment). Before the start of experiments, the mice were allowed to adapt to the experimental environment for 72 h with free feeding and drinking water. The test drugs were administrated by intraperitoneal injection at a dosage as follows:
Compound I-1 group: blank vehicle (blank saline control), 0.1 mg/kg, 0.5 mg/kg, 1 mg/kg, 5 mg/kg and 10 mg/kg;
S-duloxetine group: blank vehicle (blank saline control), 1 mg/kg, 5 mg/kg, 10 mg/kg and 20 mg/kg;
Compound C1 group: blank vehicle (blank saline control), 0.1 mg/kg, 0.5 mg/kg, 1 mg/kg, 5 mg/kg and 10 mg/kg.
After administration, the mice were placed in a transparent, ventilated plexiglass cylinder for 1 h, and then 20 μl of 4% formalin solution was injected into the left hind plantar of mice of each group by microinjector, claw pain response in mice were real-time recorded by a mini-camera. The time length of licking left claw were used as an indicator of pain response, licking time in 0-10 min (phase I) and 10-60 min (phase II) were observed and recorded, and the statistical analysis was conducted. The half effective dose (ED50) of 3 compounds were calculated: ED50 referred to the dose of the drug which decreased licking time by half as compared with the blank control group. The smaller the ED50 value was, the lower the effective analgesic dose of the compound was and the better the analgesic effect was.

HepG-2 cells = experiment: Cytotoxicity test (CCK-8), hepatotoxicity; format: cell-based; details: HepG2 cell, 72 h
Protocol: as §1, §2, §3, §4, §5

SD rats = experiment: Rat SNL model, mechanical allodynia test (nerve pain); format: in vivo; details: 1 h after administration, 10 mg/kg oral, hydrochloride salt; control group 3.967 ± 0.775
Protocol: Male SPF grade SD rats, weighed 150 g-180 g, were selected. Aseptic operation during surgery was performed. The animals were anesthetized with sodium pentobarbital (50 mg/kg, intraperitoneal injection). The surgical area of animal waist was shaved and the skin was disinfected three times with iodophor and 70% ethanol. After the skin was dried, the operation was started. Surgical knife was used to make a longitudinal incision at the back of the sacrum of the animal waist to expose the left paraspinal muscles, and stretcher was used to separate muscle tissue to expose the spine. The left spinal nerves L5 and L6 were separated and ligated with a 6-0 silk thread, and the wound was sutured. After the operation, the animals were placed on electrothermal pad, and 5 mL of saline was injected subcutaneously to prevent dehydration. After the animals were fully awakened and could move around freely, the animals were put back in the cage.
After the operation, the animals were adapted in the experimental environment for 15min/day for 3 days.
The animals were weighed to calculate the dose. […] After administration, mechanical allodynia test was performed. The rat was individually placed in a plexiglass box with a grid on the bottom of the box to ensure that the rat claw could be tested. The rats were allowed to adapt the environment for 15 min before test. After the adaptation was completed, the test fiber was used to test the center of the left hind claw of the rat. The test fiber comprises 8 test strengths: 3.61 (0.4 g), 3.84 (0.6 g), 4.08 (1 g), 4.31 (2 g), 4.56 (4 g), 4.74 (6 g), 4.93 (8 g), and 5.18 (15 g). […] During the test, rapid withdrawal of animal claw was recorded as pain response. When the test fiber was removed from animal skin, the withdrawal of animal claw was also recorded as pain response. If animal moved, the pain response was not recorded, and the test was repeated. […]
Mechanical allodynia was expressed as withdrawal threshold (PWT) in rat behavioral test, which was calculated with the following formula: […]

Sprague-Dawley rats = experiment: Rat hot plate pain model (acute pain); format: in vivo; details: 30 mg/kg intraperitoneal, hydrochloride salt
Protocol: Sprague-Dawley male, mature and unmated rats were placed at hot and cold plate (product model: PE34, US IITC) with constant 53±0.1° C. Mice with painful response such as licking claw, shaking claw or slightly jumping within 10-30 s were selected, and mice which evaded and jumped were abandoned. […] The test compound was freshly prepared on the day of administration. 0.9% NaCl physiological saline solution was prepared as solvent for later use. Appropriate amount of test compound was added into required volume of physiological saline and fully suspended, and the concentration of prepared drug was 1 mg/ml. […] After administration, the latency of heat pain was measured at 0.5 h, 1 h and 2 h after administration. In order to prevent animals from being scalded on the hot plate, the maximum incubation time was set to 30 s. Maximum possible effect (MPE) % was used to evaluate analgesic effect of each compound, i.e., MPE %=[(Post drug latency−baseline latency)/(30−baseline latency)]×100. MPE % at different time points was recorded.

## CNCC[C@H](Oc1cccc2ccccc12)c1cccs1 [S-duloxetine]
ICR mice; 10 mg/kg by gavage
  number of appearance of writhing reactions (visceral pain) within 30 min: 27 times
ICR mice; 20 mg/kg by gavage
  number of appearance of writhing reactions (visceral pain) within 30 min: 21 times
SH-SY5Y cells
  IC50: 28.6 µM
C57BL/6 mice; 1 mg/kg intraperitoneal
  Licking claw time (s) in phase II (10-60 min): 259.97 ± 64.44 s
C57BL/6 mice; 5 mg/kg intraperitoneal
  Licking claw time (s) in phase II (10-60 min): 230.49 ± 41.31 s
C57BL/6 mice; 10 mg/kg intraperitoneal
  Licking claw time (s) in phase II (10-60 min): 162.83 ± 36.27 s
C57BL/6 mice; 20 mg/kg intraperitoneal
  Licking claw time (s) in phase II (10-60 min): 72.27 ± 17.29 s
C57BL/6 mice; intraperitoneal, dose that decreases licking time by half vs blank control
  ED50 in phase II pain: 8.00 mg/kg
HepG-2 cells
  IC50: 33.3 µM
SD rats
  PWT(g), claw withdrawal threshold: 6.519 ± 2.226 g
Sprague-Dawley rats; 0.5 h after administration
  MPE %: 5.75 ± 5.74%
Sprague-Dawley rats; 1 h after administration
  MPE %: 7.44 ± 5.12%
Sprague-Dawley rats; 2 h after administration
  MPE %: 13.53 ± 4.99%
